Consider 1 compound from paper PMC9289467, “A Novel Multifunctional 5,6-Dimethoxy-Indanone-Chalcone-Carbamate Hybrids Alleviates Cognitive Decline in Alzheimer’s Disease by Dual Inhibition of Acetylcholinesterase and Inflammation” (Frontiers in Aging Neuroscience, 2022).

Assay [1] concerns APPfl, CTFβ, BACE, PS1. Nature of the assay: Western blot of APP processing, APP/PS1 mice. The class given is in vivo. The conditions noted are these: cortex and hippocampus, AP5-treated vs APP/PS1 mice. How it is done: (§1) APP/PS1 mice of ages 6 months were randomly divided into vehicle (APP/PS1, n = 10) and treatment groups (AP5, n = 10), which were intragastrically administered with AP5 (40 mg/kg) once daily for consecutive 5 months. AP5 was dissolved in distilled water containing 1% sodium carboxymethyl cellulose.
Frozen hippocampus and cortex were homogenized in pre-cooling RIPA buffer (P0013B, Beyotime) supplemented with 1 mM phenylmethanesulfonyl fluoride (PMSF) and cocktail of protease and phosphatase inhibitors. […] The membranes were incubated with 5% fat-free milk blocking solution for 1 h at room temperature and then probed with primary antibodies overnight at 4°C. […] Densitometric analysis was performed using Quantity One software (Bio-Rad, Berkeley, CA, United States). […]
(1:100, BAF2655, R&D, Minneapolis, MN, USA). […] For the quantification of Aβ plaque-associated microglia and astrocyte, Iba1- and GFAP-immunopositive cells around plaques were counted. On each slide, ten plaques were randomly determined and the microglia (nuclei) in the immediate vicinity (two times the plaque diameter) of each plaque were counted. For colocalization of PSD95 and synaptophysin, images were analyzed with the puncta analyzer plugin with a minimum pixel specification of 4 in Image Jand thresholding was consistent for every image. […]

The test system of assay [2] is recognition memory. Nature of the assay: Novel object recognition task. The class given is in vivo, APP/PS1 mice. The method, then: as §1
(§2) To investigate whether AP5 treatment plays a key role in cognition improvement of APP/PS1 mice models, the five different behavioral tests were sequentially carried out in the following order: open field, novel object recognition task, spatial object-location task, Y-maze, and Morris water maze (MWM). AP5 was also administered daily during the test periods. […]
To study the kinetics of Aβ-AChE fibril complex formation, 10 μM Aβ was mixed with AChE (R005282, Roche, Basel, Switzerland) and different concentrations AP5 and incubated with 10 μM ThT and 50 mM glycine-NaOH (pH 8.5) at 37°C, the ThT fluorescence was continually measured for 24 h at 30 min intervals. […] Fluorescence emission at485 nm was measured on a Spectra MAX GeminiXS fluorometerat an excitation wavelength of 450 nm. […]
To assess locomotor activity, mice were individually tested in an open-field box (38 cm × 38 cm × 25 cm). The movement of the mouse was tracked for 5 min with open fieldvideo analysis system, and the total move distances was automatically recorded as adirect measure of locomotor activity. […]

Assay [3] has as its system recognition memory. Nature of the assay: Spatial object location task. The class given is in vivo. Conditions: at 24 h, vs APP/PS1 mice without treatment. How it is done: as §1, §2
For the spatial object location task (an object moved to a new location), mice first explored the two objects placed in two corners of the open field for 5 min in training period. After 1 h or 24 h, the mice received a 5 min retention trial with a new spatial configuration with an object moved from one corner to the opposite corner of the open field.The discrimination index was calculated and defined as: (time spent exploring the displaced object-time spent exploring nondisplaced objects) / total exploration time for the two objects during the 5 min retention trial. […]
guided to platform and allowed to stay on it for 30 s. The time (escape latency) for each mouse to find the way and reach the target platform was analyzed. […]

Consider `CCN(C)C(=O)Oc1cccc(/C=C2\Cc3cc(OC)c(OC)cc3C2=O)c1` [AP5, (E)-3-((5,6-dimethoxy-1-oxo-1,3-dihydro-2H-inden-2-ylidene)-methyl)phenylethyl(methyl)carbamate], for which, in assay [1], the “expression levels of APPfl, CTFβ, BACE and presenilin 1” value is “no significant changes”. Moreover, the “discrimination index, novel object recognition” value in assay [2] (at 1 h, vs APP/PS1 mice) is “significantly higher”; in assay [2] (at 24 h, vs APP/PS1 mice without treatment), “significantly better”. In assay [3], the “discrimination index, spatial object location” value is reported as “significantly better”.
